One may read the EC50 as the concentration giving half of the maximal effect. One may read the AC50 as the midpoint of the concentration-response curve, whichever way the signal moves.

Active and inactive are the calls of the source. Bounds are passed on as bounds.

This is an account of results in ChEMBL document CHEMBL1201862, “PubChem BioAssay data set” (2004).

Assay [1] in a line: NIH3T3 cell viability loss – ATP luminescence, mouse fibroblasts, counter-screen, dose response (AID 2010).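 Further: cells exposed to compound for about 90 hours before reading.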 Type of assay: functional, cell-based. (In general: A counterscreen serves to expose hits that act by an unwanted route or on another target.)
A short description of assay [2]: Trypanosoma cruzi growth suppression in host cells – NIH3T3 host cells, beta-gal luminescence, confirmation (AID 2044).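 Further: intracellular parasites grown in NIH/3T3 mouse fibroblasts as host cells; luminescent beta-galactosidase reporter signal from transgenic T. cruzi replicating inside host cells; inhibitors lower the luminescence signal.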 The format is functional, cell-based.
Assay [3] deals with T1, Protein RecA (Mycobacterium tuberculosis, UniProt P9WHJ3).
T1 sequence (P9WHJ3 whole entry): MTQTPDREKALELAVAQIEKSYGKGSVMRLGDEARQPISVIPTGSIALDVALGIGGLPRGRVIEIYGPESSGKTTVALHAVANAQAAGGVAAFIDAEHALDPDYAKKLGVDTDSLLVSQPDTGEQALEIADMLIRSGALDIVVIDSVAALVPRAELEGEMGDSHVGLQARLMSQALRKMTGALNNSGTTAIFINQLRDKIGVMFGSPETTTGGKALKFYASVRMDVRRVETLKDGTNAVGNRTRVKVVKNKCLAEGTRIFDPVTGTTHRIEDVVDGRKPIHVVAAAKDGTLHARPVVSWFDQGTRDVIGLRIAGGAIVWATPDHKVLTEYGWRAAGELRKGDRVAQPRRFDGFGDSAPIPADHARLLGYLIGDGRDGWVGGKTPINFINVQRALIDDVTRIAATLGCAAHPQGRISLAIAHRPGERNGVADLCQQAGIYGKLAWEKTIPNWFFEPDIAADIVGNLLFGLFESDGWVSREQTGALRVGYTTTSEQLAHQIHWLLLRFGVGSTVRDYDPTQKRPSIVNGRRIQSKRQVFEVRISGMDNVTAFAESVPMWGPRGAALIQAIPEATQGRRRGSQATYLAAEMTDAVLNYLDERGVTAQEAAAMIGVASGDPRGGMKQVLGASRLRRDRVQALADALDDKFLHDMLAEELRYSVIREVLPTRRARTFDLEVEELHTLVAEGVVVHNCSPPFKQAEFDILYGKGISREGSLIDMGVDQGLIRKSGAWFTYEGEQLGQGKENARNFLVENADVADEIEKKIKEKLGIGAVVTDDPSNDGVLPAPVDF
The assay can be described thus: Fluorescence Cell-Free Homogeneous Dose Retest to Identify Inhibitors of RecA-Intein Splicing Activity. [Related pubchem assays (depositor defined):AID2097, AID2223, AID489010, AID492950]. Type of assay: functional.

Assay [4] addresses T2, Heat shock factor protein 1 (Mus musculus, UniProt P38532).
T2 sequence (P38532 whole entry): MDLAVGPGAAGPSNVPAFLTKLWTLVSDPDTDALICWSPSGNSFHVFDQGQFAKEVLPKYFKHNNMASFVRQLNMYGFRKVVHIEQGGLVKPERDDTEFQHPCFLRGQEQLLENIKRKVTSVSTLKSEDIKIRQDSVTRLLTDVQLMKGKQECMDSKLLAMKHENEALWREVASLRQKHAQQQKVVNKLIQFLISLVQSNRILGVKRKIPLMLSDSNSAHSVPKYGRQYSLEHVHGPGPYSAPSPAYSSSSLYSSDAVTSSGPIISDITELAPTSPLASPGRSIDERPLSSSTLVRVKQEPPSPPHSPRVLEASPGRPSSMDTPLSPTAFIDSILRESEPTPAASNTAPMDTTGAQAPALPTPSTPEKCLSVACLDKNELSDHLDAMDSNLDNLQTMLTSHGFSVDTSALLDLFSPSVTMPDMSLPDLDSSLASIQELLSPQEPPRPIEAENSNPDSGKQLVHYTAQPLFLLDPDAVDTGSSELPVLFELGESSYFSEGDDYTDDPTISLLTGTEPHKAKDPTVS
In words: enhancement of HSF1-driven luciferase signal – cell-based, NIH3T3, luminescence, dose retest, confirmation (AID 435004).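 Further: stress induced by proteasome inhibitor MG132 added 30 min after compound; luciferase reporter driven by HSF1 response element in NIH3T3 cells; actives raise luminescence as potentiators of the MG132 stress response.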 The format is functional.

For assay [5], the target named is T3, Replicative DNA helicase DnaB (Mycobacterium tuberculosis, UniProt P9WMR3).
T3 sequence (P9WMR3 whole entry): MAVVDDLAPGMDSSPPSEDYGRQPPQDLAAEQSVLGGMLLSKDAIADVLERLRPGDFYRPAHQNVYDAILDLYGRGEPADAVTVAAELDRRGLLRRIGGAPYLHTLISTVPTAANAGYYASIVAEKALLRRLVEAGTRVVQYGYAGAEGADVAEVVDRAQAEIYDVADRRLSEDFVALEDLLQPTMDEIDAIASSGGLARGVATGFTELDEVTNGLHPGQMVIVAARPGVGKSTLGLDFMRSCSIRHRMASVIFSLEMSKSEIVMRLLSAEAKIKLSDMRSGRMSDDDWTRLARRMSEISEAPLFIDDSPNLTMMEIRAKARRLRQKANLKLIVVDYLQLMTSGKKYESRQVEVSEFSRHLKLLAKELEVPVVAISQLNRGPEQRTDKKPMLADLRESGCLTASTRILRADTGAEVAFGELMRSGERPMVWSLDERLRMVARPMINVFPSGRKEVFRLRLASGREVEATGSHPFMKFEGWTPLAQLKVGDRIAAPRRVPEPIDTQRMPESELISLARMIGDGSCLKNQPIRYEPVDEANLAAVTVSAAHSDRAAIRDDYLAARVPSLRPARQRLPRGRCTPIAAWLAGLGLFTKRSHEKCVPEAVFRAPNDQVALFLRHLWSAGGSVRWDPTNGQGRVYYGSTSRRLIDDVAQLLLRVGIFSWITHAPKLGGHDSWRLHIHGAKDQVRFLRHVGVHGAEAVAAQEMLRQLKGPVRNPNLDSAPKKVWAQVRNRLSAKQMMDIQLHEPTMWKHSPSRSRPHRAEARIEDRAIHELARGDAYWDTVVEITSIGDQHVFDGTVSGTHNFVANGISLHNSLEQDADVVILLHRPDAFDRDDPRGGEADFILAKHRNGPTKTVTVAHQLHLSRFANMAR
In words: DnaB intein splicing inhibitors, dose response, biochemical, cell-free fluorescence (AID 449749). Type of assay: functional.

The target in assay [6] is Cytochrome P450 2C9 (Homo sapiens, UniProt P11712).
Assay [7] deals with Cytochrome P450 2D6 (Homo sapiens, UniProt P10635).
The subject of assay [8] is INS1. The assay can be described thus: INS-1E survival protection against cytokine death – cell-based, luminescence, retest, dose response (AID 449756).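 Further: cell death triggered by IL-1 beta plus TNF-alpha plus IFN-gamma mixture; protective hits raise ATP signal compared with cytokine alone wells.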 The format is functional. As to conditions: Rattus norvegicus.
The target in assay [9] is Cytochrome P450 2C19 (Homo sapiens, UniProt P33261). The assay can be described thus: Cytochrome panel assay with activity outcomes. Panel member name: p450-cyp2c19 Compounds with AC50 equal or less than 10 uM are considered active. Type of assay: functional. Particulars: read-out: AC50.
Sequence of Cytochrome P450 2C19 (P33261 whole entry): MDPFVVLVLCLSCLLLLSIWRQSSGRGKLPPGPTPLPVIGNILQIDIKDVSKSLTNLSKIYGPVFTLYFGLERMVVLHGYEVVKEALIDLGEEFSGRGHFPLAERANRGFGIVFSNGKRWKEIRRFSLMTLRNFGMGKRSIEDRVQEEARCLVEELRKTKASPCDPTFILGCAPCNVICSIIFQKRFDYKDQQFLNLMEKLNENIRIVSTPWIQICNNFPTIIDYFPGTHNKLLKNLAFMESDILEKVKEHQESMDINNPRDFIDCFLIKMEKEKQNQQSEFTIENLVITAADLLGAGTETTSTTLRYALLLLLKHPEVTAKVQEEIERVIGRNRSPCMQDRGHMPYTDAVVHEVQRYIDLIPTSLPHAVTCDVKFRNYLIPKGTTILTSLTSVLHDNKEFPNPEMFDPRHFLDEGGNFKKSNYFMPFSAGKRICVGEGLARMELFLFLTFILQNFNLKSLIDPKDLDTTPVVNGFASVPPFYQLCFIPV

Sequence of Cytochrome P450 2D6 (P10635 whole entry): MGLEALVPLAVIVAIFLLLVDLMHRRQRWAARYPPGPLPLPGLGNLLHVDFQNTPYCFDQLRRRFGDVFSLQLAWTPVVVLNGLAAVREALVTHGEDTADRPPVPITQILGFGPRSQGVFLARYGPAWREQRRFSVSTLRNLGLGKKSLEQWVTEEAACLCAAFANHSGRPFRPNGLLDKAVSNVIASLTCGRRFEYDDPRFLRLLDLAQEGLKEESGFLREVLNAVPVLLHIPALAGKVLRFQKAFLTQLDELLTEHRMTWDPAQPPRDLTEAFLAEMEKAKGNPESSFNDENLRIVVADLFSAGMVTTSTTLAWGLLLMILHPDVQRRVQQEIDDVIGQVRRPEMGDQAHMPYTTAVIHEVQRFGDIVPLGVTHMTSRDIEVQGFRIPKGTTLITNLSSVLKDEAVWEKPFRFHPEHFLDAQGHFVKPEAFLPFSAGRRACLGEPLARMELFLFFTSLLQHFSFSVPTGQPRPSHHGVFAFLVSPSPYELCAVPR
Sequence of Cytochrome P450 2C9 (P11712 whole entry): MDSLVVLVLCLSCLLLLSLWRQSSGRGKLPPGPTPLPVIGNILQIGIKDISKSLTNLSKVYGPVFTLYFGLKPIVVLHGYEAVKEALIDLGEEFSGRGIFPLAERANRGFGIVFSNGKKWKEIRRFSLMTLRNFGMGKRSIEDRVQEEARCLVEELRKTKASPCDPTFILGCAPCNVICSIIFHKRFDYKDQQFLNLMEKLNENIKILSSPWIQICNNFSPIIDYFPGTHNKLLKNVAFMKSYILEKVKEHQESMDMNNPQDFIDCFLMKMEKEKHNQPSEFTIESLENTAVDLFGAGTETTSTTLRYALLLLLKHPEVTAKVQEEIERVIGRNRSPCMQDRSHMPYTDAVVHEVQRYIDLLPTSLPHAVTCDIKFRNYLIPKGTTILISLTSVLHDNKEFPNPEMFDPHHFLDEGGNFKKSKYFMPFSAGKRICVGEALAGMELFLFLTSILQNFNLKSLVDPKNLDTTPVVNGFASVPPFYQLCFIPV

`Cc1ccc(O)c(C(=O)c2cc(C(=O)NCCc3ccccc3)c(=O)n(CCc3ccccc3)c2)c1`: the results for the EC50 in assay [1] and in assay [2] were > 30 µM (not active) and 2.02 µM (active), respectively.

With `CCOC(=O)c1cnc2ccc(C)cc2c1Sc1ccc(F)cc1`, the EC50 in assay [3] is 2.95 µM (active); in [4], 11.2 µM (active). The concentration at half-maximal activity (AC50) in assay [5] was 5.76 µM (active).

As for `CN1CCN(C(=O)/C(=C/c2cccnc2)NC(=O)c2cccc(Br)c2)CC1`, the EC50 in assay [4] is > 260 µM (inactive).

For the molecule `Nc1nnc(CSCc2ccccc2Cl)s1`, the EC50 in assay [4] is > 260 µM (inactive).

Consider `O=C(NC1CCCC1)C(c1ccc(F)cc1)N(Cc1ccc(F)cc1)C(=O)c1cc[nH]n1` (configuration not stated), for which the values for the AC50 in [6] and in assay [7] were 39.8 µM (inconclusive) and 25.1 µM (inconclusive), respectively.

For the molecule `CCN(CC)S(=O)(=O)c1ccc2oc(C(=O)NC3CCCc4ccccc43)c(C)c2c1` (configuration not stated), the EC50 is > 60 µM (not active) in assay [1] and 2.1 µM (active) in assay [2].

For `CC1CC(C)CN(C(=O)CCS(=O)(=O)c2ccc3c(c2)NC(=O)CS3)C1` (configuration not stated), the EC50 in assay [4] is > 260 µM (inactive).

As to `Cc1nnc2nc(SCC(=O)NCC3CCCO3)n(-c3ccc(Br)cc3)c(N)c1-2` (configuration not stated), the AC50 was 14.1 µM (inconclusive) in assay [6] and 10 µM (inconclusive) in [7].

As to `O=C(Nc1ccccc1)N1CCCN(c2ccc(C(F)(F)F)cc2[N+](=O)[O-])CC1`, in assay [4], the EC50 was > 260 µM (inactive).

Turning to `CCc1cc2c3c(c1)C1(C(=O)N3C(C)(C)C=C2C)C(C#N)=C(N)Oc2nc(O)nc(O)c21` (configuration not stated), in assay [3], the half-maximal effective concentration (EC50) was 2.65 µM (active). Further, the half-maximal activity concentration (AC50) in assay [5] was 11 µM (active).

Turning to `CS(=O)(=O)C1=NN2C(=N)/C(=C\c3ccc(OC(=O)c4ccco4)cc3)C(=O)N=C2S1`, the EC50 in assay [3] is 16.8 µM (active). In assay [5], the AC50 is > 380 µM (inactive).

Consider `CCc1cccc(Nc2c([N+](=O)[O-])nn(-c3ccc4c(c3)OCCO4)[n+]2[O-])c1`, for which the EC50 is > 60 µM (inconclusive) in assay [1] and 0.272 µM (active) in [2].

As to `Cc1ccccc1OCCNC(=O)c1ccccc1Sc1ccccc1C#N`, the values for the AC50 in [6] and in [7] were 28.2 µM (inconclusive) and 25.1 µM (inconclusive), respectively.

As for `Cn1cc(C=O)c(-c2ccc3c(c2)OCCCO3)n1`, the EC50 in assay [4] is > 260 µM (inactive).

On to `Cc1cccc(C(C)C)c1NC(=O)COC(=O)c1cccc(S(=O)(=O)N2CCc3ccccc3C2)c1`, for which the EC50 in assay [4] was > 260 µM (inactive).

For the molecule `Cc1ccc(N2C(=O)C(Cl)=C(NCc3ccccc3)C2=O)c(C)c1`, the AC50 in assay [7] was 22.4 µM (inconclusive).

On to `O=C(NC(Nc1cc(C(F)(F)F)ccc1Cl)C(=O)c1ccccc1)c1ccccc1` (configuration not stated), for which the results for the concentration giving a half-maximal response (EC50) in assay [1] and in assay [2] were > 30 µM (not active) and 2.17 µM (active), respectively.

As for `CC(C)(CC(=O)N1CCN(c2ccc(Cl)cc2)CC1)CC1=NS(=O)(=O)c2ccccc2N1`, the concentration at half-maximal activity (AC50) in assay [7] was 3.16 µM (inconclusive).

In the case of `CCOc1ccc(NC(=S)N(Cc2ccc(Cl)cc2)Cc2ccco2)cc1`, the EC50 in assay [4] is > 260 µM (inactive).

As for `CCCCCC1=C2CNC(CCC)(C(=O)OC)C=C2C(C)C1=O` (configuration not stated), the AC50 in assay [7] is 12.6 µM (inconclusive).

Turning to `O=C(NCc1cccnc1)c1cc(-c2ccco2)on1`, in assay [8], the concentration at half-maximal activity (AC50) was 1.62 µM (active).

As to `CSc1c(-c2ccccc2)nc2ccccc2c1C(=O)O`, the AC50 is 3.16 µM (inconclusive) in [7] and 10 µM (inconclusive) in [9].

`Cc1ccc(CN2CCN(CC(=O)N=Nc3c(O)[nH]c4ccccc34)CC2)cc1`: the EC50 in [1] is > 60 µM (not active); in assay [2] it was 1.08 µM (active).

For `CCOc1cc(C2C(C#N)=C(N)Oc3[nH]nc(C)c32)ccc1OCCN1CCOCC1` (configuration not stated), the EC50 in assay [3] was 4.45 µM (active). Also, the AC50 in assay [5] is 50.6 µM (active).

As to `O=C1NC(=S)S/C1=C\c1nc2ccccc2[nH]1`, the EC50 in assay [3] is > 120 µM (inactive). In assay [5], the AC50 is > 380 µM (inactive).

Consider `CCN1C(=O)CC(N2CCN(c3ccc(C(=O)c4ccccc4)cc3)CC2)C1=O` (configuration not stated), for which the EC50 in assay [4] was > 260 µM (inactive).

`O=C(NC1CCSc2ccccc21)c1ccccc1Cl` (configuration not stated): the EC50 in assay [4] was > 260 µM (inactive).

Regarding `FC(F)(F)c1ccccc1-c1cc(NCc2cccnc2)ncn1`, the AC50 in [7] is 25.1 µM (inconclusive).

Turning to `CN(C)CCCn1c(N)c(C#N)c2nc(C#N)c(C#N)nc21`, the EC50 in assay [4] was 58.3 µM (active).

With `O=C(CCNc1ccc(F)cc1)c1cc2ccccc2o1`, the results for the EC50 in [1] and in assay [2] were > 60 µM (not active) and 1.12 µM (active), respectively.

In the case of `CCc1ccc(-c2cc(C(F)(F)F)n3nc(C(=O)Nc4cnn(Cc5ccc(C)cc5)c4)cc3n2)s1`, the concentration at half-maximal activity (AC50) in assay [8] was 3.63 µM (active).

Turning to `O=C(NC1CCCC1)c1ccc([N+](=O)[O-])s1`, the EC50 in [1] was 5.25 µM (active); in assay [2], 0.546 µM (active).

Turning to `CCOC(=O)c1c(N=C(S)N2CCOCC2)sc2c1CCN(C(=O)OCC)C2`, the concentration giving a half-maximal response (EC50) in assay [3] is 20.1 µM (active). In [5], the AC50 was 5.25 µM (active).

Take `COc1cccc(N/C([S-])=C(/C(=O)c2ccc(C)c([N+](=O)[O-])c2)[n+]2ccccc2)c1`: in assay [3], the EC50 is 9.74 µM (active). Also, the AC50 in assay [5] was 13.3 µM (active).

Turning to `NCCCc1ccc2oc3ccccc3c2c1`, the results for the AC50 in [7] and in [9] were 2.51 µM (inconclusive) and 7.94 µM (inconclusive), respectively.

With `COc1ccccc1NC(=O)CN1CCN(CC(=O)Nc2ccccc2Cl)CC1`, in [4], the EC50 is > 260 µM (inactive).

For the molecule `C[C@H](CO)N1C[C@H](C)[C@@H](CN(C)C(=O)NC2CCCCC2)Oc2c(NC(=O)Nc3ccc(C(F)(F)F)cc3)cccc2C1=O`, the AC50 in assay [8] was 27.7 µM (active).

For the molecule `Oc1ccc(/C(Cc2ccc3ccccc3n2)=N\Nc2ccccc2)c(O)c1`, the EC50 in assay [3] is 13.6 µM (active). For the same molecule, in assay [5], the AC50 was 78.3 µM (active).

For `O=C(N/N=C/c1ccc(-c2cccc([N+](=O)[O-])c2)o1)c1cccs1`, the EC50 in assay [1] is > 60 µM (not active); in [2] it was 0.634 µM (active).

As to `O=C(N/N=C/c1cccnc1)c1ccccc1NS(=O)(=O)c1cccs1`, the AC50 in assay [8] is > 260 µM (inactive).
